Seven compounds from PubChem BioAssay (NCI) can be followed below.

Each structure is given as a SMILES string.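 The compound was tested at five concentrations on cells cultured in 96-well plates, with a 48-hour exposure period. TGI: total growth inhibition.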

Among the test systems are NCI-H522 lung; NCI-H23 lung; SF-295 CNS; T-47D breast; MDA-N; KM12 colon; SN12C renal; DU-145 prostate; UACC-257 melanoma; SK-MEL-2 melanoma; HOP-62 NSCLC; RPMI-8226 leukemia; 786-0 renal; SR leukemia; UO-31 renal; MDA-MB-231 breast; OVCAR-4 ovarian; PC-3 prostate; UACC-62 melanoma; M14 melanoma.
Assay in all cases: NCI-60 cell line screen, 48 h

As for `O=C(Oc1ccc(C(c2c(O)c3ccccc3oc2=O)c2c(O)c3ccccc3oc2=O)cc1)c1ccc(C(=O)c2ccccc2)cc1`, the TGI was 30.6 µM in the assay on NCI-H522 lung; 35.3 µM with NCI-H23 lung; 51.3 µM in the assay with SF-295 CNS; greater than 100 µM in the assay on T-47D breast; greater than 100 µM in the assay on MDA-N; 30.8 µM in the assay on KM12 colon. Besides, the TGI in the assay on SN12C renal is greater than 100 µM; in the assay with DU-145 prostate it was greater than 100 µM; in the assay on UACC-257 melanoma, 33.9 µM; with SK-MEL-2 melanoma it was 35.2 µM; in the assay on HOP-62 NSCLC it was 69.9 µM; with RPMI-8226 leukemia, 56.5 µM. Also, the TGI was greater than 100 µM in the assay with 786-0 renal; 55.7 µM with SR leukemia; 31.6 µM in the assay on UO-31 renal; greater than 100 µM with MDA-MB-231 breast; 92.1 µM with OVCAR-4 ovarian; 35.8 µM with PC-3 prostate. Also, the TGI in the assay with UACC-62 melanoma was found to be 41 µM.

Turning to `CC(/C=C/c1ccccc1)=N\NC(=S)N/N=C(C)/C=C/c1ccccc1`, the TGI in the assay with NCI-H522 lung was 69 µM; with NCI-H23 lung, greater than 100 µM; with M14 melanoma, greater than 100 µM; in the assay with SF-295 CNS it was 61.6 µM; with T-47D breast it was greater than 100 µM; in the assay with MDA-N it was greater than 100 µM. The TGI in the assay on SN12C renal is greater than 100 µM; in the assay with DU-145 prostate, greater than 100 µM; in the assay with UACC-257 melanoma it was greater than 100 µM; in the assay on SK-MEL-2 melanoma, 50.3 µM; in the assay on HOP-62 NSCLC, 57.7 µM; with 786-0 renal, 29.5 µM. The TGI in the assay with SR leukemia is greater than 100 µM; in the assay with UO-31 renal, greater than 100 µM; in the assay on MDA-MB-231 breast, 33.9 µM; in the assay on OVCAR-4 ovarian, 28.5 µM; in the assay on PC-3 prostate, greater than 100 µM; in the assay with UACC-62 melanoma, greater than 100 µM.

Consider `C#CCNCC(=O)O`, for which the TGI in the assay with NCI-H522 lung, with NCI-H23 lung, in the assay with M14 melanoma, in the assay with SF-295 CNS, in the assay on T-47D breast and in the assay with MDA-N was greater than 100 µM each time. Also, the TGI in the assay with KM12 colon, in the assay with DU-145 prostate, in the assay with UACC-257 melanoma, in the assay on SK-MEL-2 melanoma, in the assay with HOP-62 NSCLC and in the assay on RPMI-8226 leukemia was greater than 100 µM in each case. Moreover, the TGI in the assay on 786-0 renal, in the assay on UO-31 renal, in the assay with MDA-MB-231 breast, with OVCAR-4 ovarian, with PC-3 prostate and with UACC-62 melanoma was greater than 100 µM throughout.

For `CN(C)/C=N/c1cc(=O)n(C)c(=O)n1C`, the TGI in the assay with NCI-H522 lung, with NCI-H23 lung, in the assay with M14 melanoma, in the assay with SF-295 CNS, with T-47D breast and in the assay with MDA-N was greater than 100 µM throughout. For the same compound, the TGI in the assay on KM12 colon, in the assay with SN12C renal, with DU-145 prostate, in the assay on UACC-257 melanoma, in the assay on SK-MEL-2 melanoma and in the assay with HOP-62 NSCLC was greater than 100 µM each time. Moreover, the TGI with RPMI-8226 leukemia, with 786-0 renal, with UO-31 renal, in the assay on MDA-MB-231 breast, with OVCAR-4 ovarian and in the assay with PC-3 prostate was greater than 100 µM each time. In the assay on UACC-62 melanoma, the TGI was greater than 100 µM.

Consider `COc1cc2c(cc1OC)C1CN3CCCC3C(O)C1c1cc(OC)c(OC)cc1-2` (stereo unspecified), for which the TGI in the assay on NCI-H522 lung, in the assay on NCI-H23 lung, with M14 melanoma, in the assay on SF-295 CNS, with T-47D breast and with MDA-N was greater than 100 µM each time. Further, the TGI in the assay on KM12 colon, in the assay with SN12C renal, in the assay with DU-145 prostate, in the assay with UACC-257 melanoma, with SK-MEL-2 melanoma and with HOP-62 NSCLC was greater than 100 µM in each case. The TGI with RPMI-8226 leukemia, in the assay on 786-0 renal, in the assay on SR leukemia, in the assay on UO-31 renal, with MDA-MB-231 breast and in the assay on OVCAR-4 ovarian was greater than 100 µM in each case. In the assay with UACC-62 melanoma, the TGI was greater than 100 µM.

With `O=S(=O)(Cc1ccccc1)c1nnc(S(=O)(=O)c2ccc(Cl)cc2)s1`, the TGI is 30.8 µM in the assay with NCI-H522 lung; 54.2 µM with NCI-H23 lung; 33.7 µM with M14 melanoma; 54.9 µM in the assay with SF-295 CNS; greater than 100 µM with T-47D breast; 33 µM with MDA-N. Also, the TGI in the assay with KM12 colon was greater than 100 µM; in the assay on SN12C renal, 46.7 µM; in the assay with DU-145 prostate, 34.3 µM; in the assay on UACC-257 melanoma it was 48.8 µM; in the assay on SK-MEL-2 melanoma, 50.7 µM; in the assay with HOP-62 NSCLC, 47.3 µM. Moreover, the TGI in the assay with RPMI-8226 leukemia is 61.9 µM; with 786-0 renal it was 49.5 µM; in the assay on UO-31 renal, 44.5 µM; in the assay on MDA-MB-231 breast, 91.7 µM; with OVCAR-4 ovarian it was greater than 100 µM; in the assay on PC-3 prostate, 46.7 µM. Besides, the TGI with UACC-62 melanoma was determined as 58.7 µM.

For the compound `C#CCC(O)c1ccc(OC)c(OCc2ccccc2)c1` (stereo unspecified), the TGI in the assay on NCI-H522 lung, in the assay with NCI-H23 lung, in the assay on M14 melanoma, in the assay on SF-295 CNS, with T-47D breast and in the assay with MDA-N was greater than 100 µM each time. Besides, the TGI in the assay on KM12 colon, in the assay on SN12C renal, with DU-145 prostate, in the assay with UACC-257 melanoma, in the assay with SK-MEL-2 melanoma and in the assay with HOP-62 NSCLC was greater than 100 µM each time. The TGI with RPMI-8226 leukemia, in the assay with 786-0 renal, with UO-31 renal, with MDA-MB-231 breast, with OVCAR-4 ovarian and with PC-3 prostate was greater than 100 µM throughout. This compound also returned a TGI in the assay on UACC-62 melanoma greater than 100 µM.
